The target of one data set is T1, rat NHE-3 (Rattus norvegicus, UniProt P26433).
T1 construct: expressed in transfected cells; host or cells: Opossum kidney (OK) cells (ATCC), electroporated
The experiment in a line: Cell-based assay of NHE-3 activity (Pharmacological Test Example 1). The note with it: for IC50: read-out: rat NHE-3 Average pIC50 (converted). The procedure:
Rat NHE-3-mediated Na^+-dependent H^+ antiport was measured using a modification of the pH sensitive dye method originally reported by Tsien (Proc. Natl. Acad. Sci. USA. (1984) 81(23): 7436-7440). Opossum kidney (OK) cells were obtained from the ATCC and propagated per their instructions. The rat NHE-3 gene was introduced into OK cells via electroporation, seeded into 96 well plates and grown overnight. Medium was aspirated from the wells, cells were washed twice with NaCl-HEPES buffer (100 mM NaCl, 50 mM HEPES, 10 mM glucose, 5 mM KCl, 2 mM CaCl2, 1 mM MgCl2, pH 7.4), then incubated for 30 min at room temperature with NH4Cl-HEPES buffer (20 mM NH4Cl, 80 mM NaCl, 50 mM HEPES, 5 mM KCl, 2 mM CaCl2), 1 mM MgCl2, pH 7.4) containing 5 uM BCECF-AM (Invitrogen). Cells were washed twice with Ammonium free, Nat-free HEPES (100 mM choline, 50 mM HEPES, 10 mM glucose, 5 mM KCl, 2 mM CaCl2), 1 mM MgCl2, pH 7.4) and incubated in the same buffer for 10 minutes at room temperature to lower intracellular pH. […] Initial rates were plotted as the average 3-6 replicates, and pIC50 values were estimated using GraphPad Prism.

Data set [1] can be described thus: Determination of compound Cmax and AUC. The format is in vivo. As to conditions: rat; Sprague-Dawley rats, oral gavage, serum 0.5-4 h; actual oral dose (mg/kg) given. The procedure: Sprague-Dawley rats were orally gavaged with test article (2.5 mg/kg) and serum was collected at 0.5, 1, 2 and 4 h. Serum samples were treated with acetonitrile, precipitated proteins removed by centrifugation and supernatants analyzed by LC/MS/MS and compared against a standard curve to determine compound concentration. All compounds were orally dosed at the dosage shown, and pharmacokinetic parameters determined as described in the text.

Where [2] appears, read: OK cells expressing rat NHE-3, 0-30 uM test compound, 5 uM EIPA.

Like-named read-outs stand apart in the source and are kept apart here.

Broadly, the AUC is the area under the concentration-time curve, a measure of exposure. Read a low AUC as less exposure. The term Cmax denotes the highest concentration seen after dosing.

T1 sequence (P26433 29-831): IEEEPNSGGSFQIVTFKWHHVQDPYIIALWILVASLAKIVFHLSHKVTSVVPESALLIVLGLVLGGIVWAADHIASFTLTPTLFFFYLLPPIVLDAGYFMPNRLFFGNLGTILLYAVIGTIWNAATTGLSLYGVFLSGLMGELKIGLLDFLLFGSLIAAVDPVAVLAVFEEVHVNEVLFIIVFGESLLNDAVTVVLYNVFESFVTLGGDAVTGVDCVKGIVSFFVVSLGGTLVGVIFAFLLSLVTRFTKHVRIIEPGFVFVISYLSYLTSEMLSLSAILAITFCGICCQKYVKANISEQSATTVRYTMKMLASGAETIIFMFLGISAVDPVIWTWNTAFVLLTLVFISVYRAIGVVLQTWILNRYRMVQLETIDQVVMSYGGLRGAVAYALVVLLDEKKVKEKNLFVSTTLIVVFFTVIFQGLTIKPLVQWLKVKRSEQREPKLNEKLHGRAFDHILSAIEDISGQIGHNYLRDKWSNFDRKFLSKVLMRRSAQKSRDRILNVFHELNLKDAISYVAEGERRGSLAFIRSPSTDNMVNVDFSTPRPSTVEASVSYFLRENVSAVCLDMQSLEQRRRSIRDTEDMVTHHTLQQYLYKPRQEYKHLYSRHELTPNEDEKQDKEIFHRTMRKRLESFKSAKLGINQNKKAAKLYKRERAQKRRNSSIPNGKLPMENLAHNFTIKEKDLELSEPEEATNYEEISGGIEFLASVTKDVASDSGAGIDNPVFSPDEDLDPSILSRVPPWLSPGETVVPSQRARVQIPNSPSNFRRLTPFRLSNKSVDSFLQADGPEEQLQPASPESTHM

For the compound `CN1Cc2c(Cl)cc(Cl)cc2C(c2ccc(S(=O)(=O)NCCOCCOCCNC(=O)c3ccc(C(=O)NCCOCCOCCNS(=O)(=O)c4ccc(C5CN(C)Cc6c(Cl)cc(Cl)cc65)cc4)cc3)cc2)C1` (stereo not shown) [Example 231, N1,N4-bis(2-(2-(2-(4-(6,8-dichloro-2-methyl-1,2,3,4-tetrahydroisoquinolin-4-yl)phenylsulfonamido)ethoxy)ethoxy)ethyl)terephthalamide], the “rat NHE-3 Average pIC50” value at rat NHE-3 is listed as less than 5.0. In data set [1], this compound came in with an AUC of less than 3 ng·h/mL and a maximum concentration (Cmax) of less than 2.5 ng/mL.
On to `C/C(=C\c1cc(F)c(Oc2ccc(S(=O)(=O)NCCOCCOCCOCCNC(=O)[C@H](O)[C@@H](O)C(=O)NCCOCCOCCOCCNS(=O)(=O)c3ccc(Oc4c(F)cc(/C=C(\C)C(=O)N=C(N)N)cc4F)cc3)cc2)c(F)c1)C(=O)N=C(N)N` [Example 212, (2R,3R)—N1,N4-bis(2-(2-(2-(2-(4-(4-((E)-3-(diaminomethyleneamino)-2-methyl-3-oxoprop-1-enyl)-2,6-difluorophenoxy)phenylsulfonamido)ethoxy)ethoxy)ethoxy)ethyl)-2,3-dihydroxysuccinamide], for which, at rat NHE-3 (setting [2]), the IC50 is less than 100 nM. In data set [1], this compound returned an AUC of less than 4.4 ng·h/mL and a Cmax of less than 2.7 ng/mL.
Consider `CN1Cc2c(Cl)cc(Cl)cc2C(c2ccc(S(=O)(=O)NCCOCCOCCNC(=O)NCCOCCOCCNS(=O)(=O)c3ccc(C4CN(C)Cc5c(Cl)cc(Cl)cc54)cc3)cc2)C1` (stereo not shown) [Example 232, N,N′-(10-oxo-3,6,14,17-tetraoxa-9,11-diazanonadecane-1,19-diyl)bis(4-(6,8-dichloro-2-methyl-1,2,3,4-tetrahydroisoquinolin-4-yl)benzenesulfonamide)], for which the “rat NHE-3 Average pIC50” value on rat NHE-3 is recorded as less than 5.0. Further, in data set [1], the area under the curve (AUC) was less than 2 ng·h/mL and the Cmax is less than 2 ng/mL.
For `CN1Cc2c(Cl)cc(Cl)cc2C(c2ccc(S(=O)(=O)NCC(=O)NCC(=O)NCC(=O)NCCCCNC(=O)CNC(=O)CNC(=O)CNS(=O)(=O)c3ccc(C4CN(C)Cc5c(Cl)cc(Cl)cc54)cc3)cc2)C1` (stereo not shown) [Example 204, N,N′-(butane-1,4-diyl)bis(2-(2-(2-(4-(6,8-dichloro-2-methyl-1,2,3,4-tetrahydroisoquinolin-4-yl)phenylsulfonamido)acetamido)acetamido)acetamide)], the “rat NHE-3 Average pIC50” value at rat NHE-3 (setting [2]) is more than 7. In addition, in data set [1], the AUC is less than 2 ng·h/mL and the Cmax is less than 2 ng/mL.
Turning to `CN1Cc2c(Cl)cc(Cl)cc2C(c2cccc(S(=O)(=O)NCCOCCOCCOCCNC(=O)c3ccc(C(=O)NCCOCCOCCOCCNS(=O)(=O)c4cccc(C5CN(C)Cc6c(Cl)cc(Cl)cc65)c4)cc3)c2)C1` (stereo not shown) [Example 216, N1,N4-bis(2-(2-(2-(2-(3-(6,8-dichloro-2-methyl-1,2,3,4-tetrahydroisoquinolin-4-yl)phenylsulfonamido)ethoxy)ethoxy)ethoxy)ethyl)terephthalamide], at rat NHE-3 (setting [2]), the IC50 was less than 100 nM. In data set [1], this compound returned an area under the curve (AUC) of less than 8.3 ng·h/mL and a Cmax of less than 4 ng/mL.
On to `CN1Cc2c(Cl)cc(Cl)cc2C(c2cccc(S(=O)(=O)NCCOCCOCCOCCNC(=O)CN(CC(=O)NCCOCCOCCOCCNS(=O)(=O)c3cccc(C4CN(C)Cc5c(Cl)cc(Cl)cc54)c3)CC(=O)NCCOCCOCCOCCNS(=O)(=O)c3cccc(C4CN(C)Cc5c(Cl)cc(Cl)cc54)c3)c2)C1` (stereo not shown) [Example 213, 2,2′,2″-nitrilotris(N-(2-(2-(2-(2-(3-(6,8-dichloro-2-methyl-1,2,3,4-tetrahydroisoquinolin-4-yl)phenylsulfonamido)ethoxy)ethoxy)ethoxy)ethyl)acetamide)], for which the “rat NHE-3 Average pIC50” value on rat NHE-3 (setting [2]) is on record as 6 to 7. In data set [1], this compound had an exposure (AUC) of less than 5 ng·h/mL and a Cmax of less than 5 ng/mL.
As for `CN1Cc2c(Cl)cc(Cl)cc2C(c2ccc(S(=O)(=O)NCCOCCOCCOCCNC(=O)c3ccc(C(=O)NCCOCCOCCOCCNS(=O)(=O)c4ccc(C5CN(C)Cc6c(Cl)cc(Cl)cc65)cc4)cc3)cc2)C1` (stereo not shown) [Example 233, N1,N4-bis(2-(2-(2-(2-(4-(6,8-dichloro-2-methyl-1,2,3,4-tetrahydroisoquinolin-4-yl)phenylsulfonamido)ethoxy)ethoxy)ethoxy)ethyl)terephthalamide], the “rat NHE-3 Average pIC50” value on rat NHE-3 is given as less than 5.0. For the same compound, in data set [1], the AUC was less than 6.8 ng·h/mL and the Cmax is less than 2.6 ng/mL.
With `CN1Cc2c(Cl)cc(Cl)cc2C(c2cccc(S(=O)(=O)NCCOCCOCCOCCNC(=O)c3cc(C(=O)NCCOCCOCCOCCNS(=O)(=O)c4cccc(C5CN(C)Cc6c(Cl)cc(Cl)cc65)c4)cc(C(=O)NCCOCCOCCOCCNS(=O)(=O)c4cccc(C5CN(C)Cc6c(Cl)cc(Cl)cc65)c4)c3)c2)C1` (stereo not shown) [Example 215, N1,N3,N5-tris(2-(2-(2-(2-(3-(6,8-dichloro-2-methyl-1,2,3,4-tetrahydroisoquinolin-4-yl)phenylsulfonamido)ethoxy)ethoxy)ethoxy)ethyl)benzene-1,3,5-tricarboxamide], at rat NHE-3 (setting [2]), the “rat NHE-3 Average pIC50” value was more than 7. In data set [1], the area under the curve (AUC) was less than 2 ng·h/mL and the Cmax was less than 2 ng/mL.
On the same counts, the results for `CN1Cc2c(Cl)cc(Cl)cc2C(c2ccc(S(=O)(=O)NCCOCCOCCNC(=O)C(O)C(O)C(=O)NCCOCCOCCNS(=O)(=O)c3ccc(C4CN(C)Cc5c(Cl)cc(Cl)cc54)cc3)cc2)C1` (stereo not shown) [Example 205, N1,N4-bis(2-(2-(2-(4-(6,8-dichloro-2-methyl-1,2,3,4-tetrahydroisoquinolin-4-yl)phenylsulfonamido)ethoxy)ethoxy)ethyl)-2,3-dihydroxysuccinamide] are more than 7, less than 2 ng·h/mL and less than 2 ng/mL.
The like results for `CN1Cc2c(Cl)cc(Cl)cc2C(c2cccc(S(=O)(=O)NCCOCCOCCOCCNC(=O)NCCCCNC(=O)NCCOCCOCCOCCNS(=O)(=O)c3cccc(C4CN(C)Cc5c(Cl)cc(Cl)cc54)c3)c2)C1` (stereo not shown) [Example 208, N,N′-(13,20-dioxo-3,6,9,24,27,30-hexaoxa-12,14,19,21-tetraazadotriacontane-1,32-diyl)bis(3-(6,8-dichloro-2-methyl-1,2,3,4-tetrahydroisoquinolin-4-yl)benzenesulfonamide)] were, in that order, more than 7, less than 5 ng·h/mL and less than 5 ng/mL.
With `CN1Cc2c(Cl)cc(Cl)cc2C(c2cccc(S(=O)(=O)NCCOCCOCCOCCNC(=O)c3cccc(C(=O)NCCOCCOCCOCCNS(=O)(=O)c4cccc(C5CN(C)Cc6c(Cl)cc(Cl)cc65)c4)c3)c2)C1` (stereo not shown) [Example 228, N1,N3-bis(2-(2-(2-(2-(3-(6,8-dichloro-2-methyl-1,2,3,4-tetrahydroisoquinolin-4-yl)phenylsulfonamido)ethoxy)ethoxy)ethoxy)-ethyl)isophthalamide], the “rat NHE-3 Average pIC50” value at rat NHE-3 (setting [2]) was in the range of 6 to 7. In data set [1], the AUC is less than 5 ng·h/mL and the peak concentration (Cmax) is less than 5 ng/mL.
On to `C/C(=C\c1cc(F)c(Oc2ccc(S(=O)(=O)NCCOCCOCCOCCOCCOCCOCCNC(=O)[C@H](O)[C@@H](O)C(=O)NCCOCCOCCOCCOCCOCCOCCNS(=O)(=O)c3ccc(Oc4c(F)cc(/C=C(\C)C(=O)N=C(N)N)cc4F)cc3)cc2)c(F)c1)C(=O)N=C(N)N` [Example 210, (2R,3R)—N1,N4-bis(20-(4-(4-((E)-3-(diaminomethyleneamino)-2-methyl-3-oxoprop-1-enyl)-2,6-difluorophenoxy)phenylsulfonamido)-3,6,9,12,15,18-hexaoxaicosyl)-2,3-dihydroxysuccinamide], for which the “rat NHE-3 Average pIC50” value on rat NHE-3 (setting [2]) is on record as 6 to 7.
In the case of `CN1Cc2c(Cl)cc(Cl)cc2C(c2ccc(S(=O)(=O)NCCOCCOCCOCCNC(=O)NCCOCCOCCOCCNS(=O)(=O)c3ccc(C4CN(C)Cc5c(Cl)cc(Cl)cc54)cc3)cc2)C1` (stereo not shown) [Example 103, N,N′-(13-oxo-3,6,9,17,20,23-hexaoxa-12,14-diazapentacosane-1,25-diyl)bis(4-(6,8-dichloro-2-methyl-1,2,3,4-tetrahydroisoquinolin-4-yl)benzenesulfonamide)], the “rat NHE-3 Average pIC50” value at rat NHE-3 (setting [2]) is listed as more than 7.
Still for that read-out and setting: under `CN1Cc2c(Cl)cc(Cl)cc2C(c2cccc(S(=O)(=O)NCCOCCOCCOCCNC(=O)CCCCCCC(=O)NCCOCCOCCOCCNS(=O)(=O)c3cccc(C4CN(C)Cc5c(Cl)cc(Cl)cc54)c3)c2)C1` (stereo not shown) [Example 29, N1,N8-bis(2-(2-(2-(2-(3-(6,8-dichloro-2-methyl-1,2,3,4-tetrahydroisoquinolin-4-yl)phenylsulfonamido)ethoxy)ethoxy)ethoxy)ethyl)octanediamide] stands 6 to 7.
Same read-out and setting: the result for `CN1Cc2c(Cl)cc(Cl)cc2C(c2ccc(S(=O)(=O)NCCOCCOCCOCCNC(=O)CCOCCOCCOCCOCCOCCOCCOCCOCCOCCC(=O)NCCOCCOCCOCCNS(=O)(=O)c3ccc(C4CN(C)Cc5c(Cl)cc(Cl)cc54)cc3)cc2)C1` (stereo not shown) [Example 98, N1,N31-bis(2-(2-(2-(2-(4-(6,8-dichloro-2-methyl-1,2,3,4-tetrahydroisoquinolin-4-yl)phenylsulfonamido)ethoxy)ethoxy)ethoxy)ethyl)-4,7,10,13,16,19,22,25,28-nonaoxahentriacontane-1,31-diamide] reads more than 7.

The values are drawn from patent US20190374533A1, “COMPOUNDS AND METHODS FOR INHIBITING NHE-MEDIATED ANTIPORT IN THE TREATMENT OF DISORDERS ASSOCIATED WITH FLUID RETENTION OR SALT OVERLOAD AND GASTROINTESTINAL TRACT DISORDERS” (Ardelyx, Inc., priority 2008, published 2019).
